In US8853194B2, “Sterol derivatives and their synthesis and use” (priority 2009, dated 2014):
Several values for one entry are separate records, joined by “and”; a condition that tells them apart may be missing. Equal values may be shown once.

System: ICR mice
Assay: Intraperitoneal injection LD50 for mouse (KORBER's method)
Assay type: in vivo
Conditions: for Animal deaths: 10 mice, in 7 days
Description: I. Experiment Item: Intraperitoneal injection LD50 for mouse (KORBER's method)
ICR mice (SPF grade), with a weight range of 18-22 g, provided by Vital River Laboratories (VRL) in Beijing, China, were used. There were 5 treatment groups in total, wherein 2000 mg/kg was the highest dose, and the others decreased to 0.8 times, i.e. 1600 mg/kg, 1280 mg/kg, 1024 mg/kg and 819.2 mg/kg. The mice were randomly divided into groups. Each group had 10 mice with half male and half female. Each mouse was introperitoneal injected (0.2 ml/10 g. Observed 3-7 days, a variety of animal responses and the amount of dead mice in each group were recorded. LD50 and confidence limits were calculated by the modified Karber method(Korbor) according to the mortality rate of animals in each group.

[1] = mice, intraperitoneal injection, modified Karber method

## CC(C)CCC[C@@H](C)[C@H]1CC[C@@H]2[C@]1(C)CC[C@H]1[C@]23C=C[C@]2(CC(=O)CC[C@]12C)OO3 [CL168-6, 5α,8α-cyclicobioxygen-6-cholesten-3-one]
819.2 mg/kg i.p.
  Animal deaths: 0
1024 mg/kg i.p.
  Animal deaths: 1
1280 mg/kg i.p.
  Animal deaths: 3
1600 mg/kg i.p.
  Animal deaths: 6
2000 mg/kg i.p.
  Animal deaths: 8
819.2-2000 mg/kg i.p., first 12 hours
  Death in the 12 hours after administration: no death appeared
[1]
  LD50: 1479.11 mg/kg and 1479 mg/kg
  LD50 95% confidence interval: 1304.19 to 1677.49 mg/kg
